From patent US10561624B2, “Methods and materials for the treatment of testosterone deficiency in men” (REPROS THERAPEUTICS INC., priority 2001, dated 2020)
Where “and” joins values, the source holds several entries; their conditions need not be identical. Identical values can stand only once. Entries after “also recorded” stand apart in the source; their conditions may differ. Counter-ions that a name gives are not always drawn.

Key:
men = settings: cited from earlier work
Adult, male, Baboons [1] = test: Effects of Clomids on serum testosterone in male baboons; settings: for Serum Testosterone Levels, 6 days, mean / Serum Testosterone Levels, 12 days, mean / Serum Testosterone Levels, wash-out, mean / Serum Testosterone Levels, baseline, mean / Serum Testosterone Levels, 0 day, mean: group mean of 3 baboons; for Serum Testosterone Levels, 6 days, mean / Serum Testosterone Levels, 6 days: 1.5 mg/kg daily, day 6; for Serum Testosterone Levels, 12 days, mean: 1.5 mg/kg for 12 days; for Serum Testosterone Levels, 12 days, mean / Serum Testosterone Levels, 12 days: day 12; for Serum Testosterone Levels, wash-out, mean / Serum Testosterone Levels, wash-out: 7 days after the last treatment; for Serum Testosterone Levels, baseline, mean: before treatment; for Serum Testosterone Levels, 0 day, mean / Serum Testosterone Levels, 0 day: day 0, before first dose; for Serum Testosterone Levels, 6 days / Serum Testosterone Levels, 12 days / Serum Testosterone Levels, wash-out / Serum Testosterone Levels, baseline / Serum Testosterone Levels, 0 day: individual baboon; for Serum Testosterone Levels, 6 days / Serum Testosterone Levels, 12 days: 1.5 mg/kg; for Serum Testosterone Levels, 12 days / effect on total serum testosterone: 1.5 mg/kg for 12 consecutive days; for Serum Testosterone Levels, baseline: baseline Dec. 3, 2001, before treatment; for effect on total serum testosterone: male baboons
From the text: (§1) The samples analyzed were sera taken on the day of first treatment before being given test article (day 0), after 12 days of treatment (day 12) and 7 days after the last treatment (end or wash-out).

Adult, male, Baboons [2] = test: Effects on clinical chemistry parameters in male baboons; assay type: in vivo; settings: for serum glucose: changes within the normal range; for anionic gap: day 12 of treatment and 7 days after treatment (washout); for Alkaline phosphatase (ALP): following treatment; for serum cholesterol: not statistically significant, within the normal range
From the text: as §1

[3] = Ernst et al.; cited from earlier work
Adult, male, Baboons [4] = test: Effects on body weight and serum LH, FSH, PRL in male baboons; assay type: in vivo; settings: during the study
From the text: as §1

[5] = cited from earlier work

Row | SMILES | Serum Testosterone Levels, 6 days, mean (Adult, male, Baboons [1]) | Serum Testosterone Levels, 12 days, mean (Adult, male, Baboons [1]) | Serum Testosterone Levels, wash-out, mean (Adult, male, Baboons [1]) | Serum Testosterone Levels, baseline, mean (Adult, male, Baboons [1]) | Serum Testosterone Levels, 0 day, mean (Adult, male, Baboons [1]) | serum glucose (Adult, male, Baboons [2]) | anionic gap (Adult, male, Baboons [2]) | effect on total serum testosterone (Adult, male, Baboons [1]) | Serum Testosterone Levels, 6 days (Adult, male, Baboons [1]) | Serum Testosterone Levels, 12 days (Adult, male, Baboons [1]) | Serum Testosterone Levels, wash-out (Adult, male, Baboons [1]) | Serum Testosterone Levels, baseline (Adult, male, Baboons [1]) | Serum Testosterone Levels, 0 day (Adult, male, Baboons [1]) | estrogenic / antiestrogenic activity [3] | Alkaline phosphatase (ALP) (Adult, male, Baboons [2]) | red blood cell population (Adult, male, Baboons [2]; in vivo) | serum cholesterol (Adult, male, Baboons [2]) | also measured
1 | CCN(CC)CCOc1ccc(C(=C(Cl)c2ccccc2)c2ccccc2)cc1 [Clomid, clomiphene citrate] | 559.3 ng/dL | 588.7 ng/dL | 203.6 ng/dL | 111.5 ng/dL | 161.4 ng/dL | increase | lower values than the Enclomid group |  |  |  |  |  |  |  |  |  |  | LH, FSH, and testosterone after 2 months (men; Guay et al. 1995, 2 months): increase in LH, FSH, and testosterone; erectile dysfunction (men; Guay et al. 1995, 2 months): no effects on erectile dysfunction; FSH, LH in young and old men (men; Tenover et al. 1987): increased in FSH, LH; free and total testosterone in men (men; Tenover et al. 1987): increases in free and total testosterone; semen quality or fertility (men; WHO study, 6 months of treatment): no changes in semen quality or fertility; side effects (men; approved cis/trans mixture): blurred vision, abdominal discomfort, gynecomastia, testicular tumors, vasomotor flushes, nausea, and headaches; genotoxicity and tumor enhancement (men; other studies): genotoxic and tumor enhancement effects; variability of total testosterone levels (coefficients of variations) (Adult, male, Baboons [1]; day 6 and later, compared to animals receiving Enclomid): more variable total testosterone levels; Serum Testosterone Levels, 6 days (Adult, male, Baboons [1]; listed as CLO): 940.97 ng/dL and 585.92 ng/dL and 151.12 ng/dL; Serum Testosterone Levels, 12 days (Adult, male, Baboons [1]; listed as CLO): 891.5 ng/dL and 555.6 ng/dL and 318.9 ng/dL; Serum Testosterone Levels, wash-out (Adult, male, Baboons [1]; listed as CLO): 150.9 ng/dL and 316.3 ng/dL and 143.6 ng/dL; Serum Testosterone Levels, baseline (Adult, male, Baboons [1]; listed as CLO): 79.01 ng/dL and 97.55 ng/dL and 158.06 ng/dL; Serum Testosterone Levels, 0 day (Adult, male, Baboons [1]; listed as CLO): 76.15 ng/dL and 305.24 ng/dL and 102.94 ng/dL
2 | CCN(CC)CCOc1ccc(/C(=C(\Cl)c2ccccc2)c2ccccc2)cc1 [Enclomid, trans-clomiphene] | 1144.4 ng/dL | 1088.5 ng/dL | 325.8 ng/dL | 134.0 ng/dL | 105.0 ng/dL | no increases with treatment | raised this parameter towards normal values | significant increases in total serum testosterone; also recorded: more effective than Clomid or Zuclomid | 1223.8 ng/dL and 1128.2 ng/dL and 1081.1 ng/dL | 633.6 ng/dL and 1466 ng/dL and 1166 ng/dL | 307.2 ng/dL and 399.2 ng/dL and 271 ng/dL | 64.57 ng/dL and 166.86 ng/dL and 170.45 ng/dL | 74.96 ng/dL and 133.59 ng/dL and 106.47 ng/dL | antiestrogenic | decreased in value | substantive effects | tended to decrease | change of total serum testosterone after cessation of treatment (Adult, male, Baboons [1]; between day 12 and day 18 (washout)): significant drop; total serum testosterone on days 6 and 12 compared with baseline or day 0 (FIG. 3 time course) (Adult, male, Baboons [1]; days 6 and 12 vs baseline or day 0): significantly and statistically raised total serum testosterone; clearance from the circulation (Adult, male, Baboons [1]; inferred from testosterone drop after cessation): readily cleared from the circulation; platelets (Adult, male, Baboons [2]; 12-day treatment, values stayed within the normal range): clear effect; serum creatinine (Adult, male, Baboons [2]; between day 0 and Day 12): no differences; counts of lymphocytes and eosinophiles (Adult, male, Baboons [2]; in vivo): raising the counts; count and percent lymphocytes (Adult, male, Baboons [2]; mean percent remains in the normal range): increase; percent of granulocytes in the blood (Adult, male, Baboons [2]; very strong after the 7-day washout, below the normal range): strong effect; serum prolactin (PRL) (Adult, male, Baboons [4]): decrease
3 | CCN(CC)CCOc1ccc(/C(=C(/Cl)c2ccccc2)c2ccccc2)cc1 [Zuclomid, cis-clomiphene] | 178.5 ng/dL | 357.9 ng/dL | 498.1 ng/dL | 170.6 ng/dL | 394.2 ng/dL | increase | lower values than the Enclomid group | did not raise total serum testosterone to any extent; also recorded: not effective | 137.51 ng/dL and 169.98 ng/dL and 227.95 ng/dL | 314.5 ng/dL and 406.1 ng/dL and 353.0 ng/dL | 359.7 ng/dL and 860.5 ng/dL and 274.1 ng/dL | 124.84 ng/dL and 104.66 ng/dL and 282.29 ng/dL | 210.4 ng/dL and 67.37 ng/dL and 904.82 ng/dL | more potent and more estrogenic | not elevated | substantive effects | tended to increase | half-life ([5]; relative to the other isomer in Clomid): longer half-life; residual blood levels following a single dose ([5]; reported in literature): in excess of one month; AST (Adult, male, Baboons [2]; in vivo): lowering; hematocrit (Adult, male, Baboons [2]; in vivo): substantive effects
